We go through 90 compounds from PubChem BioAssay AID1417 (Emory University Molecular Libraries Screening Center, 2008).

pIC50: −log10 of the molar value.

In the test the target is Induced myeloid leukemia cell differentiation protein Mcl-1 (Homo sapiens) (UniProt Q07820). The test can be described thus: Mcl-1/Noxa binding inhibitor potency, dose response, biochemical, TR-FRET (AID 1417). The settings on record: Mcl-1/Noxa peptide interaction, cell-free TR-FRET (terbium/rhodamine), 2 h; measured here: absolute IC50.
Sequence of Induced myeloid leukemia cell differentiation protein Mcl-1 (Homo sapiens) (Q07820 whole entry, looked up): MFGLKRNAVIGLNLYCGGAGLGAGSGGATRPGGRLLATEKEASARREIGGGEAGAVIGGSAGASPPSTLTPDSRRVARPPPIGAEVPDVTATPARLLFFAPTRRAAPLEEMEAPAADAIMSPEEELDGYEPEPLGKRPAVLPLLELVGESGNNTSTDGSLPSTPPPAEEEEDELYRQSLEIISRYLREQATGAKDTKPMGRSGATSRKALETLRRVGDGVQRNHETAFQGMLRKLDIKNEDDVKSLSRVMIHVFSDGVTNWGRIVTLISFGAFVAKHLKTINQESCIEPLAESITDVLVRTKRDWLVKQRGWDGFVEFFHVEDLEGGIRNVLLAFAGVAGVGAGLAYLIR
Compound `COc1ccc(N2CCC(CNC(=O)Nc3ccccc3)C2)cc1` (stereo not given) showed a negative-log IC50 (pIC50) of more than 6.40.
`CN(C)c1ccc(NC(=O)Nc2cccc(Cl)c2)cc1`: the pIC50 is more than 6.40.
`O=C(Nc1nc(-c2ccncc2)cs1)c1ccco1` had a pIC50 of 5.44.
For `O=c1cc(/N=C/c2coc3c(ccc4ccccc43)c2=O)[nH]c(=S)[nH]1`, the pIC50 is 5.39.
The value for `CCOC1=C/C(=C/c2c(N)n3nc(-c4ccccc4)sc3nc2=O)C=CC1=O` was 5.61; that for `CS(=O)(=O)c1ccc(C(=O)NCCN2C(=O)S/C(=C\c3cccnc3)C2=O)cc1[N+](=O)[O-]` was 5.50; that for `CCc1ccc2nc3sc(C(=O)Nc4nnc(CC)s4)c(N)c3cc2c1` was less than 4.27.
Turning to `Cc1sc(-n2c(C)cc(/C=C3\SC(=S)NC3=O)c2C)c(C#N)c1C`, the negative logarithm of the IC50 (pIC50) is 5.39.
Take `CCn1nc(C)c(/C=N/NC(=O)Cc2ccc(Cl)cc2)c1C`: the pIC50 was less than 4.27.
With `Nc1scc2c(C(=O)N/N=C/c3ccc(Cl)cc3)nn(-c3ccccc3)c(=O)c12`, the negative logarithm of the IC50 (pIC50) was 5.88.
Compound `COc1ccc(/C=C2/C(=O)NC(=S)N(C3CC3)C2=O)cc1CN1C(=O)c2ccccc2C1=O` showed a pIC50 of 5.51. This pIC50 lies 0.37 log units lower than the previous one.
The compound `Cc1cc2nc(-c3ccc(SCc4ccc(C(=O)O)cc4)nc3)[nH]c2cc1C` gave a pIC50 of more than 6.40.
Take `Cc1c(N=Nc2c(-c3ccc([N+](=O)[O-])cc3)[nH]n(C(N)=S)c2=O)cccc1[N+](=O)[O-]`: the negative-log IC50 (pIC50) was more than 6.40.
As to `O=C(NCCO)Nc1ccc2nc(-c3ccco3)c(-c3ccco3)nc2c1`, the pIC50 was more than 6.40.
Compound `COc1cc(C2C(C#N)=C(N)OC3=C2C(=O)CCC3)c([N+](=O)[O-])cc1OC` (stereo not given) showed a pIC50 of 5.29.
In turn, `CCN(CC)c1ccc(NC(=O)c2ccc3c(c2)c(C)c(C)n3C)cc1` showed a negative logarithm of the IC50 (pIC50) of less than 4.27.
In turn, `O=C(OCC1O[C@@H](OC(=O)c2cc(O)c(O)c(O)c2)[C@@H](OC(=O)c2cc(O)c(O)c(O)c2)[C@@H](OC(=O)c2cc(O)c(O)c(O)c2)[C@@H]1OC(=O)c1cc(O)c(O)c(O)c1)c1cc(O)c(O)c(O)c1` (stereo not given in full) gave a negative-log IC50 (pIC50) of more than 6.40.
As for `O=c1ccc2[n+]([O-])c3ccc(O)cc3oc-2c1`, the pIC50 was less than 4.27.
With `CCN(CC)c1ccc(NC(=O)CCCOc2cccc(C)c2)cc1`, the pIC50 was less than 4.27.
In turn, `COc1cc(/C=C(\C#N)c2nc3ccc(C)cc3[nH]2)cc([N+](=O)[O-])c1O` showed a negative-log IC50 (pIC50) of 5.46.
`Cc1ccc(C(=O)Nc2ccc(N3CCCC3)cc2)cc1` had a pIC50 of less than 4.27.
Regarding `O=C1NC(=O)N(Cc2ccco2)C(=O)/C1=C/c1ccc(-c2cccc([N+](=O)[O-])c2)o1`, the pIC50 is 5.48.
On to `COc1ccc(CCNC(=O)CN(c2ccc(OC)c(OC)c2)S(C)(=O)=O)cc1`, for which the negative-log IC50 (pIC50) was less than 4.27.
`Fc1cc(F)c2nc(Nc3nc4cc5c(cc4s3)OCO5)sc2c1` gave a negative-log IC50 (pIC50) of more than 6.40.
Take `CCOC(=O)c1c(C)oc2c1c(CN1CCN(C(=O)OCC)CC1)c(O)c1ccccc12`: the pIC50 is more than 6.40.
For `O=C(O)c1cc(-c2ccc(/C=C3\NC(=O)N(c4ccccc4)C3=O)o2)ccc1Cl`, the negative logarithm of the IC50 (pIC50) was less than 4.27.
For the compound `O=C1CCCC2=C1C(c1ccco1)Nc1ccc3ccccc3c12` (stereo not given), the negative-log IC50 (pIC50) is 5.65.
On to `Oc1c(Cl)cc(Cl)cc1Sc1cc(Cl)cc(Cl)c1O`, for which the pIC50 is 5.78.
As for `Oc1ccc(N2CCN(c3ncnc4sc5c(c34)CCC5)CC2)cc1`, the pIC50 is 5.18.
Turning to `Cc1ccc2nc(N3C(=O)C(O)=C(C(=O)c4cc5ccccc5o4)C3c3cccs3)sc2c1` (stereo not given), the negative logarithm of the IC50 (pIC50) is 5.91.
Under `Cc1ccc(-n2c(O)c(/C=N/Nc3ccc(S(=O)(=O)N4CCOCC4)cc3[N+](=O)[O-])c3ccccc3c2=O)c(C)c1` stands less than 4.27; under `CN1CCN(c2ccc(Cl)cc2NC(=O)c2ccc(S(=O)(=O)N3CCCCCC3)cc2)CC1`, 5.41.
The value for `CCN1C(=O)/C(=C2/Sc3ccc(OC)cc3N2C)SC1=Nc1cccc(O)c1` was less than 4.27.
`CC1=Nc2ccc(C)cc2/C1=C/c1c(N)n2c(S(=O)(=O)C(C)C)nsc2nc1=O` gave a negative logarithm of the IC50 (pIC50) of less than 4.27.
For the compound `CCS(=O)(=O)N1CCN(C(C)CCc2ccccc2)CC1` (stereo not given), the pIC50 is less than 4.27.
Turning to `O=C(Nc1ccc(Nc2ccncc2)cc1)c1ccc(Nc2ccnc3ccc([N+](=O)[O-])cc23)cc1[N+](=O)[O-]`, the pIC50 is 5.51.
Consider `O=C(O)CCN1C(=O)/C(=C/c2cn(-c3ccccc3)nc2-c2cccs2)SC1=S`, for which the pIC50 is less than 4.27.
`CC(C)CNC(=O)c1c(N)n(Cc2ccco2)c2nc3ccccc3nc12` had a pIC50 of less than 4.27.
`COCCN=c1scc(-c2cccs2)n1/N=C/c1ccc(O)c(O)c1O`: the pIC50 was 5.36.
Under `COc1ccc(N2CCC(CNC(=S)Nc3cccc(OC)c3)C2)cc1` (stereo not given) stands less than 4.27.
On to `CN(CCC#N)C(=O)COC(=O)c1c2c(nc3ccccc13)/C(=C/c1ccco1)CC2`, for which the pIC50 was 5.79.
Compound `C=CCc1cccc2cc(C(=O)Nc3ccc(S(=O)(=O)Nc4nnc(CC)s4)cc3)c(=O)oc12` gave a negative logarithm of the IC50 (pIC50) of 5.81.
Compound `O=c1nc2s/c(=C\c3ccc(-c4ccccc4[N+](=O)[O-])o3)c(=O)n2nc1-c1ccccc1` gave a pIC50 of more than 6.40.
As to `C=CCN=c1scc(-c2ccco2)n1/N=C/c1ccc(O)c(O)c1O`, the negative-log IC50 (pIC50) is less than 4.27.
`Cc1csc(NC(=O)c2cc(-c3ccco3)nc3ccccc23)n1` had a pIC50 of 5.54.
The value for `N#Cc1c(NC(=O)CSc2ncnc3sccc23)oc(-c2ccco2)c1-c1ccco1` was 5.49.
For the compound `Cc1cccc(C(=O)NC(=S)NNC(=O)c2ccc(Cl)cc2)c1`, the pIC50 is less than 4.27.
In the case of `COc1ccc(NC(C)C(=O)Nc2ccc(C#N)cc2)cc1Cl` (stereo not given), the negative-log IC50 (pIC50) was less than 4.27.
With `CCS(=O)(=O)C1=NN2C(=N)/C(=C\c3ccc(SCc4ccco4)o3)C(=O)N=C2S1`, the pIC50 is 5.84.
In the case of `O=C(O)COc1ccccc1C(Nc1cccnc1)c1cc(Cl)c2cccnc2c1O` (stereo not given), the negative logarithm of the IC50 (pIC50) is more than 6.40.
The compound `O=C1CCCC2=C1C(c1ccc(O)c(O)c1)Nc1ccc3ncccc3c12` (stereo not given) had a pIC50 of more than 6.40.
Under `Cc1cccc(C)c1NC(=O)CSc1nnc(-c2ccco2)c(-c2ccco2)n1` stands 5.71; under `O=[N+]([O-])c1cc([N+](=O)[O-])c2cccnc2c1Oc1ccccc1O`, 5.90.
As to `CCc1nnc(NC(=O)c2cc(-c3ccco3)nc3ccccc23)s1`, the negative-log IC50 (pIC50) is 5.59.
Take `CC(=O)NC1=C(NC2CCS(=O)(=O)C2)C(=O)c2ccccc2C1=O` (stereo not given): the negative-log IC50 (pIC50) was 5.56. This pIC50 and that of the compound before are within 0.2 log units of each other.
The value for `Cc1nc(N)sc1-c1csc(Nc2ncccn2)n1` was 5.40; that for `COc1cc(OC)c2c(O)c3c(c(-c4c5c(c(O)c6c(OC)cc(OC)cc46)CO[C@@H](C)[C@H]5O)c2c1)[C@H](O)[C@H](C)OC3` was less than 4.27; that for `Cc1cc2nc(/C=C/c3nc4cc(C)c(C)cc4[nH]3)[nH]c2cc1C` was 5.34.
Compound `COc1cc(/C=C2\CC/C(=C\c3cc(OC)c(O)c(OC)c3)C2=O)cc(OC)c1O` gave a negative logarithm of the IC50 (pIC50) of more than 6.40.
Consider `O=C1CC(=O)c2c1cccc2[N+](=O)[O-]`, for which the negative logarithm of the IC50 (pIC50) was 5.59.
In turn, `O=C1C(Cl)=C(Nc2ccc3cn[nH]c3c2)C(=O)c2ccccc21` showed a pIC50 of more than 6.40.
The value for `CCc1ccc(-n2cccc2/C=C2/C(=N)N3C(=NC2=O)SN=C3S(C)(=O)=O)cc1` was 5.35.
For `COc1cc(/C=C2\SC(=O)N(c3ccc(Cl)cc3)C2=O)cc([N+](=O)[O-])c1O`, the negative logarithm of the IC50 (pIC50) is more than 6.40.
The compound `COc1ccc(C(=O)n2nc(C)c(Br)c2C)cc1` had a negative logarithm of the IC50 (pIC50) of less than 4.27.
The compound `O=C(COC(=O)c1c2c(nc3ccccc13)/C(=C/c1ccco1)CC2)NC1CCCC1` had a negative logarithm of the IC50 (pIC50) of 5.63.
`COc1ccc(CCNC(=O)c2ccc3nc(-c4ccco4)c(-c4ccco4)nc3c2)cc1OC`: the pIC50 is 5.35.
On to `O=C(CSc1nnc(-c2ccco2)c(-c2ccco2)n1)Nc1ccccc1`, for which the negative logarithm of the IC50 (pIC50) was 5.53. The pIC50 values of the last two compounds are within 0.2 log units of each other.
Under `CCN(CC)c1ccc(NC(=O)Nc2cccc(C(C)=O)c2)cc1` stands less than 4.27.
`O=C1C2C3C=CC(C2C(=O)N1c1cccc(O)c1)C1C2C(=O)N(c4cccc(O)c4)C(=O)C2C31` (stereo not given) had a pIC50 of less than 4.27.
`Cc1ccc(N=Nc2ccc(O)c(/C=N\NC(=O)c3ccc(N)cc3)c2)cc1C` had a negative logarithm of the IC50 (pIC50) of 5.65.
As to `CCC1=NN2C(=N)/C(=C\c3ccc(OCc4cc(=O)n5nc(CC)sc5n4)c(OC)c3)C(=O)N=C2S1`, the negative logarithm of the IC50 (pIC50) was 5.64.
Under `CN(C)c1ccc(Sc2nnc(NC(=O)Nc3ccc(Cl)cc3Cl)s2)cc1` stands 5.46.
The compound `CN1CCc2cccc3c2[C@H]1Cc1ccc(O)c(O)c1-3` gave a pIC50 of more than 6.40.
`Oc1c(Cl)cc(Cl)cc1/C=C/c1ccc2cccc(O)c2n1` showed a pIC50 of less than 4.27.
In the case of `O=C(N/N=C/c1ccc(-c2ccc(Cl)c(C(=O)O)c2)o1)c1cc2c(ccc3ccccc32)o1`, the negative logarithm of the IC50 (pIC50) is more than 6.40.
`O=C1NC(=S)/C(=C\c2ccc(-c3ccccc3Cl)o2)S1` showed a negative-log IC50 (pIC50) of 5.67.
`Cc1[nH]n(-c2ccc(Br)cc2)c(=O)c1C=Nc1ccc(S(=O)(=O)Nc2nccs2)cc1`: the negative-log IC50 (pIC50) was 5.09.
`COc1ccccc1N1C(=O)C(Cl)=C(Nc2ccccc2O)C1=O` had a pIC50 of less than 4.27.
Regarding `NC(=O)c1ccsc1NC(=O)COC(=O)/C=C/c1ccc([N+](=O)[O-])cc1`, the pIC50 is 5.54.
Compound `COC(=O)c1ccc(CSc2nc(-c3ccccc3)cs2)o1` gave a pIC50 of less than 4.27.
The compound `CS(=O)(=O)C1=NSC2=NC(=O)/C(=C\c3cccn3-c3ccc(Cl)cc3)C(=N)N21` had a pIC50 of 5.43.
`CCOC(=O)c1sc2nc3c(SCC(=O)O)cc(C(=O)c4cc(F)ccc4O)cn3c(=O)c2c1C` had a pIC50 of 5.65.
Under `COc1ccc(N2C(=O)/C(=C/C=C/c3ccccc3[N+](=O)[O-])C(=O)NC2=S)cc1` stands more than 6.40.
In the case of `COc1ccc(O)c(C(=O)c2cc(SCC(=O)O)c3nc4sc5c(c4c(=O)n3c2)CCCC5)c1`, the pIC50 was more than 6.40.
Turning to `N#C/C(=C/c1ccc(OCc2ccc(C(=O)O)cc2)c(Br)c1)c1cccc(F)c1`, the pIC50 was more than 6.40.
In turn, `CNCc1ccccc1Sc1cc(O)ccc1O` had a negative logarithm of the IC50 (pIC50) of 5.38.
For `Cc1[nH]n(-c2ncc(-c3ccccc3)s2)c(=O)c1C(c1ccc(Cl)cc1)C(C#N)C#N` (stereo not given), the pIC50 is 4.92.
The value for `COc1cc(/C=C/c2nc3ccccc3c(=O)n2-c2cccc(O)c2)ccc1O` was 4.98; that for `Cc1cccc(/N=C/c2sc3ccccc3c2O)n1` was 6.12.
The compound `CC1CCN(C(c2ccc(N(C)C)cc2)c2nnnn2C(C)(C)C)CC1` (stereo not given) had a pIC50 of 4.90.

One may read the pIC50 as −log10 of the IC50, conventionally taken in molar units.
